Experimental data from publication PMC3171408, “Analysis of the BarA/UvrY Two-Component System in Shewanella oneidensis MR-1” (PLoS ONE, 2011).

Biological target: T1, BarA(181–929) (Shewanella oneidensis, UniProt Q8EBQ2)
T1 construct: cytoplasmic region aa 181-929 of 929 aa (full length 103 kDa; two N-terminal TM domains removed), N-terminal 6xHis tag (pBAD-HisA), expressed in E. coli, Ni-NTA purified
T1 sequence (Q8EBQ2 187-935): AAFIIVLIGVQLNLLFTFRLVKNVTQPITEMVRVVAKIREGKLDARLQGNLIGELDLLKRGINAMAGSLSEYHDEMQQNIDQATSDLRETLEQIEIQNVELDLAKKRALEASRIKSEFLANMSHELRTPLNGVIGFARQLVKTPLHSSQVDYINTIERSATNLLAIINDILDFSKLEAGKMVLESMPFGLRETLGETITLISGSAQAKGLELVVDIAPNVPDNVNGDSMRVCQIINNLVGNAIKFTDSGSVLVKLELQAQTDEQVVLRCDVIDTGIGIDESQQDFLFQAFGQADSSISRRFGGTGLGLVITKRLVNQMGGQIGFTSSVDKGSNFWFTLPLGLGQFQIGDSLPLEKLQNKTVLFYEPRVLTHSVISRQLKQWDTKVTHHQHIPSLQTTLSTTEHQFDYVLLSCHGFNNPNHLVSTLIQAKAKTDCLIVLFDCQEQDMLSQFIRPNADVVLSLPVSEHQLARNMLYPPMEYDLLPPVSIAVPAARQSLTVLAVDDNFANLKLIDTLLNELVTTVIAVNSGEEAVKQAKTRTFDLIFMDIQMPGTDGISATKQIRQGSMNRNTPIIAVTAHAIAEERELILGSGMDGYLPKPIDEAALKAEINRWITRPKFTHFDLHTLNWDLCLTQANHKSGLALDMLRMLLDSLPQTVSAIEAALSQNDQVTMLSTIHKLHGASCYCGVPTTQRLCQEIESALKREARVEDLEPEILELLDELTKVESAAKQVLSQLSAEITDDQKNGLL
Experiment: autophosphorylation, SDS-PAGE autoradiography
Assay type: biochemical
Conditions: 0.5 mM ATP, 10 µM protein, 5 mM MgCl2, 50 mM KCl, pH 8.0, room temperature; labelled compound

Nc1ncnc2c1ncn2[C@@H]1O[C@H](COP(=O)(O)OP(=O)(O)OP(=O)(O)O)[C@@H](O)[C@H]1O [[γ-^32P]ATP]
autophosphorylation, SDS-PAGE autoradiography: BarA was readily phosphorylated, indicating autophosphorylation activity of the kinase region.
